Test results published in publication PMC8243547 (BMC Complementary Medicine and Therapies, 2021).
≈ marks a conversion by molar mass, not a printed value. Where “and” joins values, the source holds several entries; their conditions need not be identical. Equal values may be shown once. Read-outs that look alike come from different tables or passages of the source.

How the values were obtained:
[1] = tested on: multi-resistant Dd2 strain of P. falciparum; assay: SYBR green I fluorescence-based antiplasmodial assay, PfDd2; format: cell-based; settings: Plasmodium falciparum
Experimental: (§1) The cytotoxicity assay was performed using the African green monkey normal kidney Vero cells (ATCC CRL 1586) and murine macrophages Raw 264.7 cells (ATCC #TIB-71) obtained from the American Type Culture Collection (ATCC).
(§2) The culture medium was renewed daily to propagate the culture. Thin blood smears were made and stained with 10% Giemsa solution for 10 min and microscopically examined under oil immersion to monitor cell cycle transition and parasitaemia.
(§3) Before each experiment, synchronized ring stage parasites were obtained by 5% sorbitol (w/v) treatment as previously described.
(§4) The parasite susceptibility was determined in 96-well microtitration plates using the SYBR green I fluorescence-based method with some modifications. Briefly, sorbitol-synchronized ring stage parasites (hematocrit: 1.5%, parasitemia: 1%) were incubated in the presence of two-fold diluted extracts (0.78-100 μg/mL, DMSO 0.5%), fractions (0.39-50 μg/mL, DMSO 0.5%) or compounds (0.15-20 μg/mL, DMSO 0.5%). […] Drug-free culture wells in 0.5% DMSO were considered as positive growth controls. After 72 h of incubation, 50 μL of SYBR Green I lysis solution [Tris (20 mM; pH 7.5) (Sigma–Aldrich), EDTA (5 mM) (Sigma–Aldrich), saponin (0.008%, w/v) (Sigma–Aldrich), Triton X-100 (0.08%, v/v) (Sigma–Aldrich) and SYBR Green (2x) (Life technologies)] were added to each well and the plate was incubated in the dark at 37 °C for 30 min. SYBR green I fluorescence was measured using a Fluoroskan Ascent multi-well plate reader (Thermo scientific) with excitation and emission wavelength bands set at 485 and 538 nm, respectively. […] The resistance indices (RI), defined as the ratio of the EC50 of drug-resistant strain to the EC50 of sensitive strain were calculated.
(§5) Microsoft Excel Software was used to calculate the percentage of inhibition. The EC50 and CC50 values for the in vitro antiplasmodial activity were determined by non-linear regression analysis using GraphPad Prism 5.0 Software.

[2] = tested on: chloroquine-sensitive 3D7 strain of P. falciparum; assay: SYBR green I fluorescence-based antiplasmodial assay, Pf3D7; format: cell-based; settings: Plasmodium falciparum
Experimental: as §1, §2, §3, §4, §5

[3] = tested on: chloroquine-sensitive strain D10 of P. falciparum; design: method as in PMID 21503279; settings: cited from earlier work
[4] = tested on: chloroquine resistant strain Pf7G8; design: method as in PMID 18710482; settings: read-out: EC50 against chloroquine resistant strain Pf7G8; cited from earlier work
red blood cells = settings: cited from earlier work
[5] = tested on: human liver cell line Huh7; settings: cited from earlier work
normal human cells HUVE = settings: read-out: 50% lethal concentration (LC50), HUVE; cited from earlier work
[6] = tested on: multi-resistant Dd2 strain of P. falciparum; design: method as in PMID 12064726; settings: read-out: EC50 against multi-resistant Dd2 strain; cited from earlier work
[7] = Resazurin-based cytotoxicity assay, Raw 264.7 cells; settings: mouse
Experimental: as §1
The cytotoxicity of active natural products was assessed according to the protocol described by. The African green monkey normal kidney Vero cells (ATCC CRL 1586) and murine macrophages Raw 264.7 cells (ATCC #TIB-71) were maintained in T-25 flasks (Corning Incorporated, USA) using complete Dulbecco’s Modified Eagle’s Medium (Sigma-Aldrich, Germany), supplemented with, 10% Fetal Bovine Serum (Sigma-Aldrich, Germany), 0.2% sodium bicarbonate (w/v) (Sigma-Aldrich, Germany) and 1% (v/v) Penicillin-Streptomycin (Sigma-Aldrich, Germany). The cells were kept at 37 °C for 72 h in 5% CO2 incubator, and the medium was renewed each 72 h and the cell density monitored under the inverted fluorescent microscope Etaluma 520 (Etaluma, USA) until the formation of a monolayer. Confluent culture (nearly 90%) was trypsinized (0.05% Trypsin-EDTA, Sigma-Aldrich, Germany), then centrifuged at 1800 rpm for 5 min and the resulting pellet was re-suspended in culture medium. Cells at 10^4cells per well were seeded (100 μL) in 96-well culture plates (Costar, USA) and incubated overnight to allow cell adhesion. Thereafter, 10 μL of serially diluted extracts, fractions (≤200 μg/mL), and compounds (≤50 μg/mL) were added to plate wells in duplicate. The plates were incubated in a humidified and 5% CO2 atmosphere at 37 °C for 48 h. […] Fluorescence was then read using a Magelan Infinite M200 fluorescence multi-well plate reader (Tecan) with excitation and emission wavelengths at 530 and 590 nm, respectively. […] Selectivity indices (SI = CC50/EC50, defining the balance between cytotoxicity and antiplasmodial activity) were calculated for each test substance.
as §5

[8] = tested on: resistant strain W2 of P. falciparum; design: method as in PMID 21503279; settings: cited from earlier work
P. berghei = settings: murine malaria model, cited from earlier work
FabI = tested on: FabI; design: method as in PMID 16722653; settings: enzyme of fatty acid biosynthesis of P. falciparum; read-out: EC50 of FabI inhibition; cited from earlier work
[9] = tested on: African green monkey normal kidney Vero cells; assay: Resazurin-based cytotoxicity assay, Vero cells; settings: over Vero and Raw 264.7 cells and Pf3D7 and PfDd2 strains
Experimental: as §1
(§6) The cytotoxicity of active natural products was assessed according to the protocol described by. The African green monkey normal kidney Vero cells (ATCC CRL 1586) and murine macrophages Raw 264.7 cells (ATCC #TIB-71) were maintained in T-25 flasks (Corning Incorporated, USA) using complete Dulbecco’s Modified Eagle’s Medium (Sigma-Aldrich, Germany), supplemented with, 10% Fetal Bovine Serum (Sigma-Aldrich, Germany), 0.2% sodium bicarbonate (w/v) (Sigma-Aldrich, Germany) and 1% (v/v) Penicillin-Streptomycin (Sigma-Aldrich, Germany). The cells were kept at 37 °C for 72 h in 5% CO2 incubator, and the medium was renewed each 72 h and the cell density monitored under the inverted fluorescent microscope Etaluma 520 (Etaluma, USA) until the formation of a monolayer. Confluent culture (nearly 90%) was trypsinized (0.05% Trypsin-EDTA, Sigma-Aldrich, Germany), then centrifuged at 1800 rpm for 5 min and the resulting pellet was re-suspended in culture medium. Cells at 10^4cells per well were seeded (100 μL) in 96-well culture plates (Costar, USA) and incubated overnight to allow cell adhesion. Thereafter, 10 μL of serially diluted extracts, fractions (≤200 μg/mL), and compounds (≤50 μg/mL) were added to plate wells in duplicate. The plates were incubated in a humidified and 5% CO2 atmosphere at 37 °C for 48 h. Podophyllotoxin at 20 μM was added as positive control and wells containing untreated cells were included as 100% growth control. Ten microliters of resazurin stock solution (0.15 mg/mL in sterile PBS), were added to each well, and incubated for an additional 4 h. Fluorescence was then read using a Magelan Infinite M200 fluorescence multi-well plate reader (Tecan) with excitation and emission wavelengths at 530 and 590 nm, respectively. The percentage of cell viability was calculated with regard to the negative control, and subsequently used to determine the concentration that reduced 50% of cell viability (CC50) by non-linear regression using the GraphPad Prism software version 5.0 (San Diego, California) as described above. Selectivity indices (SI = CC50/EC50, defining the balance between cytotoxicity and antiplasmodial activity) were calculated for each test substance.
as §5

in vitro = settings: African green monkey
Experimental: as §1, §6, §5

[10] = tested on: chloroquine sensitive strain Pf3D7; design: method as in PMID 18710482; settings: read-out: EC50 against chloroquine sensitive strain Pf3D7; cited from earlier work
[11] = tested on: chloroquine sensitive poW strain of P. falciparum; design: method as in PMID 12064726; settings: read-out: EC50 against chloroquine sensitive poW strain; cited from earlier work
normal human cells TIG-1 = settings: read-out: 50% lethal concentration (LC50), TIG-1; cited from earlier work
PfDd2 = tested on: PfDd2; design: method as in PMID 19015351; settings: read-out: antiplasmodial potency PfDd2; cited from earlier work
Pf3D7 = tested on: Pf3D7; design: method as in PMID 19015351; settings: read-out: antiplasmodial potency Pf3D7; cited from earlier work
[12] = DD2, isolated compounds and reference drugs (Table 3), 72 h incubation, read-out: EC50 (μM) PfDd2
[13] = 3D7, isolated compounds and reference drugs (Table 3), 72 h incubation, read-out: EC50 (μM) Pf3D7
[14] = DD2, 72 h, read-out: EC50 (μM) PfDd2

C[C@@H]1CC[C@H]2[C@@H](C)C(=O)O[C@@H]3O[C@@]4(C)CC[C@@H]1[C@]32OO4 [Artemisinin, reference compound]
EC50 ([1]; DD2, Table 1 reference drugs, 72 h incubation, read-out: EC50 PfDd2, reference drugs): 0.018 ± 0.003 µM
EC50 [1, 12]: 0.018 ± 0.003 µM
EC50 ([2]; 3D7, Table 1 reference drugs, 72 h incubation, read-out: EC50 Pf3D7, reference drugs): 0.014 ± 0.001 µM
EC50 [2, 13]: 0.014 ± 0.001 µM

CCN(CC)CCCC(C)Nc1ccnc2cc(Cl)ccc12 (stereo not drawn) [Chloroquine, reference compound]
EC50 [1, 14]: 0.449 ± 0.065 µM
EC50 ([1]; DD2, 72 h, read-out: EC50 PfDd2, reference drugs (μM)): 0.449 ± 0.065 µM
EC50 ([2]; 3D7, 72 h, read-out: EC50 (μM) Pf3D7): 0.018 ± 0.002 µM
EC50 ([2]; 3D7, 72 h, read-out: EC50 Pf3D7, reference drugs (μM)): 0.018 ± 0.002 µM

O=c1cc(-c2ccc(O)cc2)oc2cc(O)cc(O)c12 [Compound 1, apigenin]
EC50 against chloroquine-sensitive strain D10 [3]: 25.4 ± 7.9 µg/mL (≈ 94 µM)
EC50 [4]: 13 ± 2 µM
membrane disruption on red blood cells, in words (red blood cells): no signs
cytotoxicity on Huh7, in words [5]: no signs of cytotoxicity
CC50 (normal human cells HUVE): 110 µM
EC50 [6]: 28.5 µM
CC50 at 48 h [7]: > 185 µM
EC50 against resistant strain W2 [8]: 20.2 ± 6.4 µg/mL (≈ 74.7 µM)
EC50 [1, 12]: 16.4 ± 0.52 µM
suppression of P. berghei parasiteamia (P. berghei; 15 mg/kg/day): 49.23%
suppression of P. berghei parasiteamia (P. berghei; 35 mg/kg/day): 50.3%
suppression of P. berghei parasiteamia (P. berghei; 70 mg/kg/day): 69.74%
EC50 (FabI): 50 µM
EC50 [2, 13]: 19 ± 0.72 µM
SI (selectivity index) [9]: greater than 9
CC50 at 48 h (in vitro): > 185 µM
EC50 [10]: 20 ± 3 µM
EC50 [11]: 19 µM
CC50 (normal human cells TIG-1): 110 µM

Oc1ccc([C@H]2Oc3cc(O)cc(O)c3C[C@@H]2O)cc1 [Compound 2, afzelechin]
EC50 [1, 12]: > 200 µM
EC50 [2, 13]: > 200 µM

O=c1c(O)c(-c2ccc(O)cc2)oc2cc(O)cc(O)c12 [Compound 3, kaempferol]
EC50 [1, 12]: > 200 µM
EC50 [2, 13]: > 200 µM

C=C(C)[C@@H]1CC[C@]2(C)CC[C@]3(C)C(CCC4[C@@]5(C)C[C@H](O)[C@H](O)C(C)(C)C5CC[C@]43C)C12 (stereo partly drawn) [Compound 4, 2β,3β-dihydroxylup-20-ene]
EC50 [1, 14]: > 200 µM
EC50 [2, 13]: > 200 µM

COc1c(O)cc2c(=O)oc3c(OC)c(O)cc4c(=O)oc1c2c34 [Compound 6, 3,3′-O-dimethylellagic acid]
CC50 at 48 h [7]: > 152 µM
EC50 [1, 12]: 1.36 ± 0.47 µM
EC50 [2, 13]: 4.27 ± 0.05 µM
SI (selectivity index) [9]: greater than 9
CC50 at 48 h (in vitro): > 152 µM

COc1cc([C@@H]2c3cc4c(cc3[C@H](O)[C@H]3COC(=O)[C@H]23)OCO4)cc(OC)c1OC [Podophyllotoxin, reference compound]
CC50 at 48 h [7]: 0.76 µg/mL and 1.83 µM
CC50 at 48 h (in vitro): 1.89 µg/mL and 4.56 µM

O=c1oc2c(O)c(O)cc3c(=O)oc4c(O)c(O)cc1c4c23 [ellagic acid]
EC50 (PfDd2): 0.351 µM
EC50 (Pf3D7): 0.819 µM
